The target in the assay is T1, PDE4D5 (Homo sapiens, UniProt Q08499).
T1 construct: stably expressed the full-length human PDE4D5, PDE4B1 and PDE4A4 long isoforms; made in house
Nature of the assay: PDE assay, [3H]cAMP hydrolysis by HEK-PDE4D5 cell lysate cytosol fraction. In kind it is biochemical. The settings on record: 30 μM; mean % increase in counts over basal activity. The protocol: HEK 293 cells were transfected with pDEST™ PDE4 expression vectors using Lipofectamine LTX/Plus reagent (Invitrogen) as outlined by the manufacturer and clonal isolates expanded to obtain cell lines that stably expressed the full-length human PDE4D5, PDE4B1 and PDE4A4 long isoforms and the full length human PDE4B2 short isoform. These were called the HEK-PDE4D5, HEK-PDE4B1, HEK-PDE4A4 and HEK-PDE4B2 cell lines, respectively.
HEK-PDE4D5 cells were seeded out in 100 mm plates and incubated at 37° C. in an atmosphere of 5% CO2, 95% air. Cell lysates were prepared using KHEM buffer [50 mM KCl, 10 mM EGTA, 50 mM HEPES (pH 7.2), 1.92 mM MgCl2].
To prepare the cell lysates, the 100 mm plates containing the cells were placed on ice and washed with ice-cold PBS (phosphate buffered saline, pH 7.4). KHEM buffer (500 μl) was added to the cells. Cells were then scraped off the plate and triturated using a needle (BD Microlance™ 0.8, 40 mm). The lysed cells were then centrifuged at 2000 rpm for 10 minutes to remove cell debris and the supernatant (cell lysate containing recombinant PDE4D5) was transferred to a fresh tube and kept on ice.
The cell lysate containing recombinant PDE4D5 was transferred into a centrifuge tube and placed into an ultracentrifuge (BECKMAN COULTER) and spun at high speed (100,000 g) for 30 minutes at 4° C. The cytosol fraction was then collected and its protein amount determined using a BCA protein assay.
PDE assays were performed in thin walled V-bottomed 96-well plates. The assays were performed at a final concentration of 10 mM Tris/5 mM MgCl2 plus PDE4D5 cell lysate cytosol fraction, containing over-expressed PDE4D5, with and without test compound. The lysate/compound mix were incubated together for 15 min at room temperature on an orbital shaker prior to addition of [^3H] cAMP (final concentration 1 μM [^3H] cAMP; Perkin Elmer) to a final volume of 50 μl per reaction. The reactions were then incubated for 10 minutes at 30° C., terminated by heating for 2 min at 95° C. and allowed to cool. Snake venom (12.5 μl of 1 mg/ml; Crotalus atrox, Sigma) was then added and the plates were agitated and incubated for a further 15 minutes at 30° C. Dowex ion exchange resin (Sigma, chloride form, 200-400 mesh; 200 μl; prepared as a 1:1 Dowex: water stock, thoroughly re-suspended and diluted 2:1 with ethanol) was then added to each well and the plates incubated for 15 min at room temperature on an orbital shaker ensuring sufficient agitation for resin suspension (550 RPM). The reaction mixture was then transferred to a 96 well filter plate (Millipore; […] pore size) and filtered into a receiving 96-well plate to remove the dowex suspension. 30 μL of the filtered solution was then transferred to the wells of an Opti-plate (Perkin Elmer) 96 well assay plate and 120 μl of Microscint 40 scintillation fluid was added. The plate was then placed on an orbital shaker for 10 min at high speed (900 RPM) to mix the sample with scintillation fluid prior to quantitation using a plate based scintillation counter (Top-Count).
The % increase in counts in the presence of test compound at a particular concentration indicates the % increase in enzyme activity at that concentration.

T1 sequence (Q08499 1-745 isoform Q08499-6): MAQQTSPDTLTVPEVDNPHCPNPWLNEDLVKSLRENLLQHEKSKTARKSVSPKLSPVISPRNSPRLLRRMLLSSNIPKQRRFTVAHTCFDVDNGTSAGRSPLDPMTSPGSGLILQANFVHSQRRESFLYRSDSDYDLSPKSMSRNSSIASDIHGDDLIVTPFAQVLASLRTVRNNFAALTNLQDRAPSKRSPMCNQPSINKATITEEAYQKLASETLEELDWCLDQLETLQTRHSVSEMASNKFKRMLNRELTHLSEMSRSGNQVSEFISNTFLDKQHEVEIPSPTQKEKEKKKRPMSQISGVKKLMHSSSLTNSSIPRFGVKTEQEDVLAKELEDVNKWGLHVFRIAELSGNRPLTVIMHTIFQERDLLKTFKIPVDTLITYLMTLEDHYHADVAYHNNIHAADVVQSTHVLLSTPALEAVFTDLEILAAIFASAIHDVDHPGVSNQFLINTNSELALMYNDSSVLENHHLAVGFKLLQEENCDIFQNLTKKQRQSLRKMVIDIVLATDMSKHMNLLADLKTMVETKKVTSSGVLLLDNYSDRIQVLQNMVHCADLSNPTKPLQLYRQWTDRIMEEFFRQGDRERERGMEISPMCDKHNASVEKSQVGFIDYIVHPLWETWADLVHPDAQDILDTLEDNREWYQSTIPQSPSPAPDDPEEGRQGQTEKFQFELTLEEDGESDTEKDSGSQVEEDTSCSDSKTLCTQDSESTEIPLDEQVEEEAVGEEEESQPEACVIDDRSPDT

Compound `CCn1nc(-c2ccc(Cl)c(F)c2)nc1CC(=O)Nc1cc(C)on1` [Example 6, 2-[3-(4-Chloro-3-fluorophenyl)-1-ethyl-1H-1,2,4-triazol-5-yl]-N-(5-methyl-1,2-oxazol-3-yl)acetamide] showed an activation at 30 µM of 38.5%.

For the compound `CCn1nc(-c2ccc(Cl)c(F)c2)nc1CC(=O)NCc1ccnc(C(F)(F)F)c1` [Example 83, 2-[3-(4-Chloro-3-fluorophenyl)-1-ethyl-1H-1,2,4-triazol-5-yl]-N-{[2-(trifluoromethyl)pyridin-4-yl]methyl}acetamide], the activation at 30 µM came to 89.6%.

`CCn1nc(-c2ccc(OC(F)(F)F)cc2)nc1CC(=O)NCc1cc(Cl)cc(Cl)c1` [Example 28, N-[(3,5-Dichlorophenyl)methyl]-2-{1-ethyl-3-[4-(trifluoromethoxy)phenyl]-1H-1,2,4-triazol-5-yl}acetamide]: the activation at 30 µM was 46.3%.

On to `CCn1nc(-c2ccc(Cl)c(F)c2)nc1CC(=O)Nc1cnccn1` [Example 8, 2-[3-(4-Chloro-3-fluorophenyl)-1-ethyl-1H-1,2,4-triazol-5-yl]-N-(pyrazin-2-yl)acetamide], for which the activation at 30 µM came to 49.6%.

Compound `CCn1nc(-c2ccc(Cl)c(F)c2)nc1CC(=O)NCc1ccc2[nH]ncc2c1` [Example 7, 2-[3-(4-Chloro-3-fluorophenyl)-1-ethyl-1H-1,2,4-triazol-5-yl]-N-[(1H-indazol-5-yl)methyl]acetamide] had an activation at 30 µM of 94.1%.

As for `CCn1nc(-c2ccc(Cl)c(F)c2)nc1CC(=O)NCc1cccc(F)c1F` [Example 13, 2-[3-(4-Chloro-3-fluorophenyl)-1-ethyl-1H-1,2,4-triazol-5-yl]-N-[(2,3-difluorophenyl)methyl]acetamide], the activation at 30 µM came out at 28.4%.

With `COc1cccc(CNC(=O)Cc2nc(-c3ccc(Cl)c(F)c3)nn2C)c1` [Example 19, 2-[3-(4-Chloro-3-fluorophenyl)-1-methyl-1H-1,2,4-triazol-5-yl]-N-[(3-methoxyphenyl)methyl]acetamide], the activation at 30 µM turned out to be 87.8%.

`O=C(O)CCn1nc(-c2ccc(Cl)c(F)c2)nc1CC(=O)NCc1cc(Cl)cc(Cl)c1` [Example 58, 3-[3-(4-Chloro-3-fluorophenyl)-5-({[(3,5-dichlorophenyl)methyl]carbamoyl}methyl)-1H-1,2,4-triazol-1-yl]propanoic acid] gave an activation at 30 µM of 128%.

Compound `CCn1nc(-c2ccc(Cl)c(OC(C)C)c2)nc1CC(=O)N[C@H]1CCc2ccccc21` [Example 36, 2-[3-(4-Chloro-3-isopropyloxyphenyl)-1-ethyl-1H-1,2,4-triazol-5-yl]-N-[(1S)-2,3-dihydro-1H-inden-1-yl]acetamide] yielded an activation at 30 µM of 33%.

`Cc1cc(CNC(=O)Cc2nc(-c3ccc(Cl)c(F)c3)nn2CC2CC2)cc(C)n1` [Example 26, 2-[3-(4-Chloro-3-fluorophenyl)-1-(cyclopropylmethyl)-1H-1,2,4-triazol-5-yl]-N-[(2,6-dimethylpyridin-4-yl)methyl]acetamide]: the activation at 30 µM worked out at 87.5%.

On to `Cn1nc(-c2ccc(Cl)c(F)c2)nc1CC(=O)NCc1cccc(F)c1` [Example 20, 2-[3-(4-Chloro-3-fluorophenyl)-1-methyl-1H-1,2,4-triazol-5-yl]-N-[(3-fluorophenyl)methyl]acetamide], for which the activation at 30 µM came out at 78.6%.

Compound `COC(=O)Cn1nc(-c2ccc(Cl)c(F)c2)nc1CC(=O)NCc1cc(Cl)cc(Cl)c1` [Example 54, Methyl 2-[3-(4-chloro-3-fluorophenyl)-5-({[(3,5-dichlorophenyl)methyl]carbamoyl}methyl)-1H-1,2,4-triazol-1-yl]acetate] had an activation at 30 µM of 97.2%.

On to `CC(C)Oc1cc(-c2nc(CC(=O)N[C@H]3CCc4ccccc43)n(C)n2)ccc1Cl` [Example 44], for which the activation at 30 µM came out at 45%.

Take `O=C(Cc1nc(-c2ccc(Cl)c(F)c2)nn1CC1CC1)N[C@H]1CCc2ccccc21` [Example 72, 2-[3-(4-Chloro-3-fluorophenyl)-1-(cyclopropylmethyl)-1H-1,2,4-triazol-5-yl]-N-[(1S)-2,3-dihydro-1H-inden-1-yl]acetamide]: the activation at 30 µM is 92%.

The compound `O=C(Cc1nc(-c2ccc(Cl)c(F)c2)nn1CC1CC1)N[C@H]1CCOc2ccc(Cl)cc21` [Example 78, N-[(4S)-6-Chloro-3,4-dihydro-2H-1-benzopyran-4-yl]-2-[3-(4-chloro-3-fluorophenyl)-1-(cyclopropylmethyl)-1H-1,2,4-triazol-5-yl]acetamide] showed an activation at 30 µM of 79.1%.

Compound `CC(C)Oc1cc(-c2nc(CC(=O)N[C@H]3CCOc4ccccc43)n(C)n2)ccc1Cl` [Example 48, 2-[3-(4-Chloro-3-isopropyloxyphenyl)-1-methyl-1H-1,2,4-triazol-5-yl]-N-[(4S)-3,4-dihydro-2H-1-benzopyran-4-yl]acetamide] returned an activation at 30 µM of 45.2%.

For `O=C(Cc1nc(-c2ccc(Cl)c(F)c2)nn1CC1CC1)NCc1ccc2[nH]ncc2c1` [Example 27, 2-[3-(4-Chloro-3-fluorophenyl)-1-(cyclopropylmethyl)-1H-1,2,4-triazol-5-yl]-N-[(1H-indazol-5-yl)methyl]acetamide], the activation at 30 µM was 106%.

Take `CCn1nc(-c2ccc(Cl)c(F)c2)nc1CC(=O)NCc1ccnc(C(F)F)c1` [Example 84, 2-[3-(4-Chloro-3-fluorophenyl)-1-ethyl-1H-1,2,4-triazol-5-yl]-N-{[2-(difluoromethyl)pyridin-4-yl]methyl}acetamide]: the activation at 30 µM came out at 32.2%.

`CCn1nc(-c2ccc(Cl)c(F)c2)nc1CC(=O)NCc1ccc(OC)nc1` [Example 17, 2-[3-(4-Chloro-3-fluorophenyl)-1-ethyl-1H-1,2,4-triazol-5-yl]-N-[(6-methoxypyridin-3-yl)methyl]acetamide] came in with an activation at 30 µM of 26.8%.

In the case of `Cn1nc(-c2ccc(Cl)c(F)c2)nc1CC(=O)NCc1ccc2[nH]ncc2c1` [Example 21, 2-[3-(4-Chloro-3-fluorophenyl)-1-methyl-1H-1,2,4-triazol-5-yl]-N-[(1H-indazol-5-yl)methyl]acetamide], the activation at 30 µM worked out at 60.8%.

`CCn1nc(-c2ccc(Cl)c(F)c2)nc1C(F)(F)C(=O)NCc1ccc2[nH]c(C)nc2c1` [Example 52, 2-[3-(4-Chloro-3-fluorophenyl)-1-ethyl-1H-1,2,4-triazol-5-yl]-2,2-difluoro-N-[(2-methyl-1H-1,3-benzimidazol-5-yl)methyl]acetamide] returned an activation at 30 µM of 73.8%.

Compound `CCOC(=O)CCCn1nc(-c2ccc(Cl)c(F)c2)nc1CC(=O)NCc1cc(Cl)cc(Cl)c1` [Example 56, Ethyl 4-[3-(4-chloro-3-fluorophenyl)-5-({[(3,5-dichlorophenyl)methyl]carbamoyl}methyl)-1H-1,2,4-triazol-1-yl]butanoate] displayed an activation at 30 µM of 155%.

The compound `CCc1cc(CNC(=O)Cc2nc(-c3ccc(Cl)c(F)c3)nn2CC)cc(CC)n1` [Example 80, 2-[3-(4-Chloro-3-fluorophenyl)-1-ethyl-1H-1,2,4-triazol-5-yl]-N-[(2,6-diethylpyridin-4-yl)methyl]acetamide] gave an activation at 30 µM of 58.9%.

`CCn1nc(-c2ccc(Cl)c(F)c2)nc1CC(=O)NCc1ccc2[nH]c(=O)[nH]c2c1` [Example 9, 2-[3-(4-Chloro-3-fluorophenyl)-1-ethyl-1H-1,2,4-triazol-5-yl]-N-[(2-oxo-2,3-dihydro-1H-benzo[d]imidazol-5-yl)methyl]acetamide] registered an activation at 30 µM of 55.6%.

(Values after patent US11560373B2, “Compounds and their use as PDE4 activators” (Mironid Limited, priority 2018, dated 2023).)
